Measured values published in PubChem BioAssay AID1996.
Values after ≈ are worked out from the molar mass of the structure shown.

Details: buffer; pH 7.4; 200.0 µM

Compound | solubility kinetic
CC1(NC(=O)C2CCCCC2)CCS(=O)(=O)C1 (stereo not given) | 35.1 µg/mL (≈ 135 µM)
CCOc1ccc(CSC(=N)N)cc1Cl.Cl | > 42.2 µg/mL
Nc1ccc(Sc2ccccc2)nc1 | > 30.3 µg/mL
O=C(CCSc1ccc(Cl)cc1)NC1CCCC1 | 32.3 µg/mL (≈ 114 µM)
CCN1CCN(c2nc(Nc3cccc(F)c3)nc(N)c2[N+](=O)[O-])CC1 | > 54.2 µg/mL
CC(C)CNC(=O)CC1Nc2ccccc2NC1=O (stereo not given) | 38.8 µg/mL (≈ 148 µM)
CC(=O)Nc1nc2ccccc2n1Cc1ccc(Cl)cc1 | 7.8 µg/mL (≈ 26 µM)
CC(=O)c1sc(-c2ccccc2)cc1NS(=O)(=O)c1ccccc1 | < 0.8 µg/mL
COC(=O)c1ccc(N2CCN(C)CC2)c(NC(=O)c2cccs2)c1 | > 53.9 µg/mL
C=CCNC(=S)N1CCC(Cc2ccccc2)CC1 | 31.5 µg/mL (≈ 115 µM)
COc1ccc(C(=O)/C=C2/C(=O)Nc3ccccc32)cc1OC | 1.2 µg/mL (≈ 3.88 µM)
CCN(CC)Cc1nc2sc(C)c(C)c2c(=O)[nH]1 | 34.9 µg/mL (≈ 132 µM)
CCN(Cc1ccccc1)C(=O)c1ccc(SC)cc1OC | 45.8 µg/mL (≈ 145 µM)
CCC1(c2ccc(F)cc2)NC(=O)N(CC(=O)N2CCN(C(=O)c3ccco3)CC2)C1=O (stereo not given) | > 66.4 µg/mL
Cc1cc(NC(=O)CSc2ncc(C(F)(F)F)cc2Cl)no1 | 1.2 µg/mL (≈ 3.41 µM)
CCCCCNCc1ccc(Cl)cc1 | 12.4 µg/mL (≈ 58.6 µM)
CN(C)[C@@H]1C(=O)C(C(N)=O)=C(O)[C@@]2(O)C(=O)C3=C(O)c4c(O)cccc4[C@@](C)(O)C3[C@H](O)C12.Cl (stereo not given in full) | 70.2 µg/mL
O=C(Cn1cncn1)NCCCc1ccccc1 | > 36.6 µg/mL
CC(C)OCc1ccc(C(=O)N2CCN(CC(=O)N3CCCC3)CC2)cc1 | > 56 µg/mL
CCn1c(=O)c2ccccc2n(Cc2cccc(C)c2)c1=O | 19.9 µg/mL (≈ 67.6 µM)

Compound | solubility kinetic
O=C(Nc1ccccc1)c1ccccc1C(=O)N1CCCCC1 | 42.6 µg/mL (≈ 138 µM)
O=C(Oc1cc(=O)oc2c1c(=O)n1c3c(cccc23)CC1)c1ccccc1 | 33 µg/mL (≈ 91.8 µM)
CCC(=O)c1ccc(OCC(O)CNC2CCCC2)cc1 (stereo not given) | 35.6 µg/mL (≈ 122 µM)
O=C(COC(=O)COc1ccccc1)NC1CCCC1 | > 41.6 µg/mL
Cc1ccc(COC(=O)NCc2cccnc2)cc1 | 35.7 µg/mL (≈ 139 µM)
Cc1ccc(NC(=O)C2CCCC2)c(Br)c1 | 8.6 µg/mL (≈ 30.5 µM)
Cc1ccc(C(=O)NCCN2CCN(C(=O)c3ccc(C)c(C)c3)CC2)cc1C | 53.1 µg/mL (≈ 135 µM)
O=C(COC(=O)COc1ccccc1)Nc1ccc(Br)cc1Br | 2.2 µg/mL (≈ 4.97 µM)
NS(=O)(=O)c1ccc(NC(=O)c2ccc(S(=O)(=O)N3CCCCC3)cc2)cc1 | 2.1 µg/mL (≈ 4.96 µM)
COc1ccccc1NC(=O)C1(c2ccccc2)CCCC1 | 7.9 µg/mL (≈ 26.7 µM)
CC(C)(C)c1ccc(C(=O)N2CCN(C(=O)c3cccs3)CC2)cc1 | > 53.5 µg/mL
COc1cccc(NC(=O)c2cnc(SC)nc2)c1 | 14.3 µg/mL (≈ 51.9 µM)
COc1cc(SC)ccc1C(=O)OCC(=O)N1CC(=O)Nc2ccccc21 | 17.6 µg/mL (≈ 45.5 µM)
CC(=O)Nc1ccc2c(c1)N(C(C)=O)c1ccccc1CC2 | > 44.2 µg/mL
CC(=O)Nc1ccc2c(c1)ncn2-c1ccccc1 | > 37.7 µg/mL
Cc1ccc(S(=O)(=O)N(C)CC(=O)N2CCC(C(N)=O)CC2)cc1 | > 53 µg/mL
Cc1cn2c(=O)c(C(=O)N3CCN(c4ccccc4F)CC3)cnc2s1 | > 55.9 µg/mL
O=C(NC1CCN(S(=O)(=O)c2ccc(F)cc2)CC1)c1ccco1 | 17.5 µg/mL (≈ 49.7 µM)
CCc1ccc(N(C(C)=O)c2nc(CCl)cs2)cc1 | > 44.2 µg/mL
Cc1cc(C)cc(OCCCn2ccnc2)c1 | 26.4 µg/mL (≈ 115 µM)

Compound | solubility kinetic
CN(CC1CCCN(CCc2ccc(F)cc2)C1)C(=O)CCC(F)(F)F (stereo not given) | 48.5 µg/mL (≈ 130 µM)
Cl.O=C(Nc1cccc(F)c1)[C@@H]1CCCN1 | > 36.7 µg/mL
COc1ccc(CN2CCC(Cc3ccccc3)CC2)c(C)c1C | 17 µg/mL (≈ 52.6 µM)
N#Cc1ccc(C(=O)NCCCSc2ccccc2)cc1 | 6.4 µg/mL (≈ 21.6 µM)
COc1ccc(NC(=O)CS(=O)(=O)c2ccc(F)cc2)cc1 | 46.9 µg/mL (≈ 145 µM)
CN(CC(=O)NC(=O)NC1CCCCC1)c1ccccc1 | 6.7 µg/mL (≈ 23.2 µM)
CN1CCCN(C(=O)c2ccc(Cl)s2)CC1 | > 38.8 µg/mL
C=CCn1c(O)c(C(CC)=Nc2ccc3c(c2)CCC3)c(=O)[nH]c1=O | 1.4 µg/mL (≈ 4.12 µM)
N#C/C(=C(\O)c1cc(Cl)sc1Cl)c1nc2ccccc2[nH]1 | < 0.2 µg/mL
CC1(C)CC(NC(=O)Cc2ccccc2)CC(C)(C)N1.Cl | > 46.6 µg/mL
O=C(COC(=O)COc1cccc(Br)c1)NCc1ccc2c(c1)OCO2 | 32.6 µg/mL (≈ 77.2 µM)
CCc1c(C)nc(SCC(=O)N2CCCCC2CC)[nH]c1=O (stereo not given) | 44.6 µg/mL (≈ 138 µM)
S=C1NCN(Cc2ccccc2)CN1 | > 31.1 µg/mL
O=C(OCCN1CCN(C2=NS(=O)(=O)c3ccccc32)CC1)c1ccccc1F | 57.3 µg/mL (≈ 137 µM)
O=c1[nH]c(-c2ccccc2)c(-c2ccccc2)o1 | 14.8 µg/mL (≈ 62.4 µM)
O=C1NC(=Nc2cccnc2)S/C1=C/c1ccc(F)cc1 | 0.7 µg/mL (≈ 2.34 µM)
COC(=O)CS(=O)(=O)c1cc([N+](=O)[O-])ccc1NC(=O)OC | 38.7 µg/mL (≈ 116 µM)
OCCNc1cc(Cl)ncn1 | > 26 µg/mL
COc1ccc(NC(=O)CCN2CCOCC2)c(OC)c1 | > 44.2 µg/mL
CCOC(=O)C(O)C1CCc2c([nH]c3ccc(C)cc23)C1=O (stereo not given) | 22.6 µg/mL (≈ 75 µM)
